Each structure is given as a SMILES string.

In the assay the target is MAPK14 (human) (UniProt Q16539). The assay can be described thus: Inhibition of MAPK14 Kinase Activity.
Sequence of MAPK14 (human) (Q16539 whole entry, looked up): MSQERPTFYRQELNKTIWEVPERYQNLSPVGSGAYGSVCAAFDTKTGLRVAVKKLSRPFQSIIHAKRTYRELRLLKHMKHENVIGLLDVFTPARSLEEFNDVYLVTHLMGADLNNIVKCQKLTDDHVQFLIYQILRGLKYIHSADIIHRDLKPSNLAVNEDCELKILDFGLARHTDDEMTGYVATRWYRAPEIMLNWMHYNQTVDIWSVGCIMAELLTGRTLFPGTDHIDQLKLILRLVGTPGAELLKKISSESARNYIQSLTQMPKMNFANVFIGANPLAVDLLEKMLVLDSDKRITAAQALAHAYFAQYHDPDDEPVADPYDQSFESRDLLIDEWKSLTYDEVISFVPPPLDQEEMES

Take `N#Cc1sc2c(ccc(=O)n2-c2ccccc2)c1Nc1cccc(Br)c1`: the IC50 was not above 1000 nM.
Under `C=Cc1ccc(-n2c(=O)ccc3c(Nc4ccccc4)c(C(=O)OCC)sc32)cc1` stands not above 1000 nM.
Under `CCN(CC)C(=N)c1sc2c(ccc(=O)n2-c2ccccc2)c1Nc1cccc(C)c1` stands not above 1000 nM.
Under `NC(=O)c1sc2c(ccc(=O)n2-c2ccccc2)c1Nc1cccc(O)c1` stands not above 1000 nM; under `CCOC(=O)c1sc2c(ccc(=O)n2-c2ccc(C(C)(C)O)cc2)c1Nc1ccccc1`, not above 1000 nM; under `Cc1cccc(Nc2c(C#N)sc3c2ccc(=O)n3-c2ccc(F)cc2)c1`, not above 1000 nM.
`Cc1cc(Nc2c(C#N)sc3c2ccc(=O)n3-c2ccccc2C)ccc1F` registered an IC50 not above 1000 nM.
With `CSc1cccc(Nc2c(C(N)=O)sc3c2ccc(=O)n3-c2ccccc2)c1`, the IC50 is not above 1000 nM.
Under `N#Cc1sc2c(ccc(=O)n2-c2ccccc2)c1Nc1cccc(SC(F)(F)F)c1` stands not above 1000 nM; under `CN(C)C(=O)c1sc2c(ccc(=O)n2-c2ccccc2)c1Nc1ccccc1`, not above 1000 nM.
Under `O=C(NC1CCNC1)c1sc2c(ccc(=O)n2-c2ccccc2)c1Nc1ccc(F)cc1F` (centres undefined) stands not above 1000 nM.
Under `NC(=O)c1sc2c(ccc(=O)n2-c2ccccc2)c1Nc1ccc(F)c(Cl)c1` stands not above 1000 nM; under `CC(=O)c1ccc(-n2c(=O)ccc3c(Nc4cccc(Cl)c4)c(C#N)sc32)cc1`, not above 1000 nM; under `CCOC(=O)c1sc2c(ccc(=O)n2CC2CC2)c1Nc1ccc(F)cc1F`, not above 1000 nM.
Molecule `CN(C)CCN(C)C(=O)c1sc2c(ccc(=O)n2-c2ccccc2)c1Nc1ccccc1` registered an IC50 not above 1000 nM.
Under `Cc1cc(Nc2c(C#N)sc3c2ccc(=O)n3-c2ccccc2)ccc1F` stands not above 1000 nM; under `NC(=O)c1sc2c(ccc(=O)n2-c2ccc(C(O)CO)cc2)c1Nc1ccccc1` (centres undefined), not above 1000 nM; under `NC(=O)c1sc2c(ccc(=O)n2CC2CC2)c1Nc1ccc(F)cc1F`, not above 1000 nM.
Under `CCN(CC)C(=O)c1sc2c(ccc(=O)n2-c2ccccc2)c1Nc1ccccc1` stands not above 1000 nM; under `CCOC(=O)c1sc2c(ccc(=O)n2-c2ccccc2)c1Nc1ccc(F)c(Cl)c1`, not above 1000 nM; under `CCOC(=O)c1sc2c(ccc(=O)n2CCOCCOC)c1Nc1ccccc1`, not above 1000 nM.
Under `Cc1cccc(Nc2c(C(N)=O)sc3c2ccc(=O)n3CC2CC2)c1C#N` stands not above 1000 nM; under `CCOC(=O)c1sc2c(ccc(=O)n2-c2ccccc2)c1Nc1cccc(C)c1`, not above 1000 nM; under `N#Cc1sc2c(ccc(=O)n2-c2ccccc2Cl)c1Nc1ccccc1`, not above 1000 nM.
`N#Cc1sc2c(ccc(=O)n2-c2ccccc2)c1Nc1ccccc1OC(F)(F)F` showed an IC50 not above 1000 nM.
Under `CCOC(=O)c1sc2c(ccc(=O)n2-c2ccc([S+](C)[O-])cc2)c1Nc1ccccc1C#N` (centres undefined) stands not above 1000 nM.
Under `Cc1cccc(Nc2c(C(N)=O)sc3c2ccc(=O)n3-c2ccccc2)c1` stands not above 1000 nM; under `Cc1cccc(Nc2c(C#N)sc3c2ccc(=O)n3C2CC2)c1`, not above 1000 nM.
Consider `O=C(c1sc2c(ccc(=O)n2-c2ccccc2)c1Nc1ccccc1)N1CCCCC1`, for which the IC50 was not above 1000 nM.
Take `CC(C)(CO)NC(=O)c1sc2c(ccc(=O)n2-c2ccccc2)c1Nc1ccccc1`: the IC50 is not above 1000 nM.
Under `Cc1cccc(Nc2c(C#N)sc3c2ccc(=O)n3CC2CC2)c1` stands not above 1000 nM.
`Cc1cccc(Nc2c(C(N)=O)sc3c2ccc(=O)n3-c2ccccc2)c1C#N` came in with a half-maximal inhibitory concentration (IC50) not above 1000 nM.
Under `N#Cc1sc2c(ccc(=O)n2CC2CC2)c1Nc1ccccc1` stands not above 1000 nM; under `Cc1nccn1CCOc1ccc(-n2c(=O)ccc3c(Nc4ccc(F)cc4F)c(C(N)=O)sc32)cc1`, not above 1000 nM; under `CCOC(=O)c1sc2c(ccc(=O)n2-c2ccsc2)c1Nc1ccccc1`, not above 1000 nM.
Under `O=C(NCCCn1ccnc1)c1sc2c(ccc(=O)n2-c2ccccc2)c1Nc1ccccc1` stands not above 1000 nM; under `O=C(NCCN1CCCCC1)c1sc2c(ccc(=O)n2-c2ccccc2)c1Nc1ccccc1`, not above 1000 nM; under `NC(=O)c1sc2c(ccc(=O)n2-c2ccccc2)c1Nc1ccccc1OC(F)F`, not above 1000 nM.
Under `Cc1cccc(Nc2c(C(N)=O)sc3c2ccc(=O)n3-c2ccc(F)cc2)c1C#N` stands not above 1000 nM; under `Cc1cc(Nc2c(C#N)sc3c2ccc(=O)n3-c2ccccc2Cl)ccc1F`, not above 1000 nM; under `Cc1ccc(-n2c(=O)ccc3c(Nc4ccc(F)c(C)c4)c(C(N)=O)sc32)cc1`, not above 1000 nM.
`CCOC(=O)c1sc2c(ccc(=O)n2-c2ccccc2)c1Nc1ccc(Cl)cc1` came in with an IC50 not above 1000 nM.
Under `Cc1cc(Nc2c(C#N)sc3c2ccc(=O)n3CC2CC2)ccc1F` stands not above 1000 nM; under `NC(=O)c1sc2c(ccc(=O)n2-c2ccccc2)c1Nc1cccc(OC(F)(F)F)c1`, not above 1000 nM; under `NC(=O)c1sc2c(ccc(=O)n2-c2ccccc2)c1Nc1ccccc1O`, not above 1000 nM.
Under `CCOC(=O)c1sc2c(ccc(=O)n2-c2ccc([S+](C)[O-])cc2)c1Nc1ccccc1` (centres undefined) stands not above 1000 nM; under `O=C(O)c1sc2c(ccc(=O)n2-c2ccccc2)c1Nc1ccccc1`, not above 1000 nM.
Under `NC(=O)c1sc2c(ccc(=O)n2CC2CC2)c1Nc1cccc(Br)c1` stands not above 1000 nM; under `N#Cc1sc2c(ccc(=O)n2-c2cccnc2)c1Nc1ccccc1`, not above 1000 nM.
Take `CCOC(=O)c1sc2c(ccc(=O)n2-c2ccc3c(ccn3C)c2)c1Nc1ccccc1C#N`: the concentration for half-maximal inhibition (IC50) was not above 1000 nM.
Molecule `CCOC(=O)c1sc2c(ccc(=O)n2-c2ccccc2)c1Nc1ccc(F)cc1` showed an IC50 not above 1000 nM.
Under `Cc1c(Br)cccc1Nc1c(C#N)sc2c1ccc(=O)n2-c1ccccc1` stands not above 1000 nM; under `Cc1cc(Nc2c(C(N)=O)sc3c2ccc(=O)n3-c2ccccc2)ccc1F`, not above 1000 nM.
Under `O=c1ccc2c(Nc3ccccc3)csc2n1-c1ccccc1` stands not above 1000 nM; under `Cc1ccccc1Nc1c(C#N)sc2c1ccc(=O)n2-c1ccccc1`, not above 1000 nM.
Under `O=C(O)c1sc2c(ccc(=O)n2-c2ccc3[nH]ccc3c2)c1Nc1ccccc1` stands not above 1000 nM; under `Cc1cc(Nc2c(C(N)=O)sc3c2ccc(=O)n3-c2ccccc2C)ccc1F`, not above 1000 nM.
As to `O=c1ccc2c(Nc3cccc(Cl)c3)csc2n1-c1ccccc1`, the IC50 was not above 1000 nM.
Under `Cc1cccc(Nc2c(C#N)sc3c2ccc(=O)n3-c2ccccc2)n1` stands not above 1000 nM.
The molecule `NC(=O)c1sc2c(ccc(=O)n2-c2ccccc2)c1Nc1cc(Cl)cc(Cl)c1` displayed an IC50 not above 1000 nM.
In turn, `CCOC(=O)c1sc2c(ccc(=O)n2-c2ccccc2)c1Nc1ccccc1C#N` gave an IC50 not above 1000 nM.
Under `O=C(NCCN1CCCCC1)c1sc2c(ccc(=O)n2CC2CC2)c1Nc1ccccc1` stands not above 1000 nM; under `CCOC(=O)c1sc2c(ccc(=O)n2-c2cccc(C)c2)c1Nc1ccc(F)c(C)c1`, not above 1000 nM.
Under `N#Cc1sc2c(ccc(=O)n2-c2ccccc2)c1Nc1ccc(F)c(Cl)c1` stands not above 1000 nM; under `CON(C)C(=O)c1sc2c(ccc(=O)n2-c2ccccc2)c1Nc1ccc(F)cc1F`, not above 1000 nM; under `CCOC(=O)c1sc2c(ccc(=O)n2-c2ccccc2)c1Nc1ccccc1Cl`, not above 1000 nM.
Molecule `NC(=O)c1sc2c(ccc(=O)n2-c2ccccc2)c1Nc1cccc(SC(F)(F)F)c1` displayed an IC50 not above 1000 nM.
Under `CON(C)C(=O)c1sc2c(ccc(=O)n2CC2CC2)c1Nc1ccccc1` stands not above 1000 nM; under `Cc1cc(F)ccc1Nc1c(C#N)sc2c1ccc(=O)n2-c1ccccc1`, not above 1000 nM.
Under `Cc1cccc(Nc2c(C(=N)N)sc3c2ccc(=O)n3-c2ccccc2)c1` stands not above 1000 nM.
`Cc1ccc(-n2c(=O)ccc3c(Nc4cccc(C)c4)c(C(N)=O)sc32)cc1` came in with an IC50 not above 1000 nM.
Under `Cc1cc(Nc2c(C(=O)N(C)O)sc3c2ccc(=O)n3-c2ccccc2)ccc1F` stands not above 1000 nM.
Under `Cc1cccc(Nc2c(C(N)=O)sc3c2ccc(=O)n3-c2ccccc2C)c1` stands not above 1000 nM.
Under `NC(=O)c1sc2c(ccc(=O)n2-c2ccccc2)c1Nc1ccc(F)cc1` stands not above 1000 nM; under `Cc1ccc(-n2c(=O)ccc3c(Nc4cccc(C)c4)c(C#N)sc32)cc1`, not above 1000 nM; under `CSc1cccc(Nc2c(C#N)sc3c2ccc(=O)n3-c2ccccc2)c1`, not above 1000 nM.
`CC(=O)c1sc2c(ccc(=O)n2-c2ccccc2)c1Nc1ccccc1` came in with an IC50 not above 1000 nM.
Under `N#Cc1sc2c(ccc(=O)n2-c2ccc(OC[C@H](O)CO)cc2)c1Nc1ccc(F)cc1F` stands not above 1000 nM; under `N#Cc1cccc(Nc2c(C(=O)N3CCCC3)sc3c2ccc(=O)n3-c2ccccc2)c1`, not above 1000 nM.

In general, IC50 refers to the concentration needed to halve the response being measured.
